Reference: patent publication US5208032A, “Increasing the growth of turkeys using implant of 19-nortestosterone” (Rutgers, The State University of New Jersey, priority 1992, dated 1993)

Columns and labels:
[1] = Comparison of effect on growth in castrated male White Leghorn chickens (Study IV, Table II); format: in vivo
Protocol: The single comb White Leghorn strain (Dekalb XL) of chicken (Avian Services, Frenchtown, N.J.) was used in all studies. Chicks were obtained on the day following hatch and were then maintained in a well ventilated, temperature- and humidity-controlled animal room. Chicks were housed in temperature-controlled (access to small brood chambers--32° to 35° C.), wire-floored, 5-tier brooder batteries (measuring 0.74 W×1.55 L×0.27 H m per tier) until termination of respective studies. A 12 hour light:12 hour dark photoperiod was maintained at all times within the animal room. Feed and water were available ad libitum, with a standard commercial diet (Agway; Bordentown, N.J.), chick starter mash, fed to chicks 1 to 42 days of age, and then from 43 to 84 days, grower mash was provided (manufacturer statement on ration compositions are shown in Table 2).
Excluding Study II, chicks were either castrated (Quigley, 1967) or sham-operated at 13 days of age. Prior to castration, cockerels were deprived of feed and water for 24 hours in order that the intestines may become empty and thus permit better vision into the body cavity and accessibility to testes. Birds were restrained by fastening the wings and legs with leather straps so that sufficient tension was applied to hold the bird well stretched out in a lateral recumbency (on its left side). Next, an approximate 1 inch incision was made midway between the last two ribs and a small rib spreader inserted to hold the ribs about 1/2 inch apart.
Forceps were used to remove both testicles, with the lower or left testicle removed first. The forceps were carefully worked over the testicle and so manipulated as to enclose the entire organ. It was then drawn out with a slight twisting motion. At this step, care was taken not to rupture any of the primary blood vessels. When the rib spreader was removed, and the tension on the bird released (i.e., leg and wing straps removed), the skin and thigh muscles slipped back over the incision thus affording a natural protection. No special care was necessary for surgically manipulated birds other than to puncture "air pockets" which developed under the skin due to air escaping from within the abdominal cavity before the incision between the ribs was healed.
In all studies, chicks were rank-ordered by weight, wing-banded and distributed into treatment groups of equal body weights at 14 days of age. Excluding Study I, e.g., in which male, female and castrate male comparisons were made, all control groups were implanted with 1.0-cm length cholesterol-filled Silastic polysiloxane implants (i.e., steroid surface exposure of 1.0-cm; actual length was 2.0-cm with 1/2 cm wood dowel plugs placed at each end of implant). The remaining treatment groups consisted of chicks (male, female or castrated male) implanted with either testosterone-, 5-alpha-DHT-, 5-beta-DHT-, estradiol-17-beta-, or 19-nortestosterone-filled Silastic polysiloxane implants with steriod surface exposures of either 0.3, 1.0 or 3.0 cm in length. Steroid implants were prepared by manually packing respective crystalline steroids (Steraloids; Wilton, N.H.) into Silastic Medical Grade tubing (1.57 mm i.d.; Dow Corning) (Smith et al., 1977). The amounts of steroid contained in the implants were as follows (mean±SEM of 20 randomly chosen implants, 5 for each steroid): 2.6±0.2 mg (0.3-cm), 8.9±0.4 mg (1.0-cm), and 29.2±0.7 mg 3.0-cm). At the time of group assignment, implants were placed in the subcutaneous (S.C.) layer of skin behind the neck. Supplemental steroid implants (containing doses of steroids equivalent to those of the initial implants) were implanted at 6 and 10 weeks of age, without removal of prior implants, to ensure adequate androgen replacement with increasing growth. Cage floors and fecal collection trays were checked for 2 consecutive days following each implantation session to ensure completeness of procedure. […]

[2] = Growth promotion and feed efficiency in turkeys (summary in words); format: in vivo
Protocol: A presently preferred dosage in the form of such a subcutaneous implant is at least about 20 mg, with a dosage of about 50 mg being highly suitable. It has been found suitable to administer the 19-nortestosterone subcutaneously, for example, below the ear of the turkey, using conventional implanting devices. The dosage can be administered in the form of an implant device which releases the 19-nortestosterone slowly in a desired constant rate, over a period of time such a about 21 days or more. Desirably, the implant can be in the form of a capsule enveloping the 19-nortestosterone which provides the desired slow, constant release or in the form of a polymer mass pellet having encapsulated or dispersed therein 19-nortestosterone so as to permit by diffusion or slow dissolution release subcutaneously and subsequent systemic absorption. It has been found suitably to use silicone rubber as a polymeric encapsulating material.
It is a natural compound.

[3] = 0.3-cm implant, given unsigned (decrease vs cholesterol)
[4] = 1.0-cm implant, given unsigned (decrease vs cholesterol)
[5] = 3.0-cm implant, given unsigned (decrease vs cholesterol)
[6] = 0.1-cm implant (so in the source)

| SMILES | 6-week Body Wt. ([1]; 0.3-cm implant) | 12-week Body Wt. ([1]; 0.3-cm implant) | Adipose Abdominal ([1]; 0.3-cm implant) | Final 12-week Shank-toe Length ([1]; 0.3-cm implant) | Right Breast Muscle ([1]; 0.3-cm implant) | Adipose Abdominal Change [1, 3] | 6-week Body Wt. ([1]; 3.0-cm implant) | 12-week Body Wt. ([1]; 3.0-cm implant) | Adipose Abdominal ([1]; 3.0-cm implant) | Final 12-week Shank-toe Length ([1]; 3.0-cm implant) | Right Breast Muscle ([1]; 3.0-cm implant) | 12-week Body Wt. Change [1, 5] | Adipose Abdominal Change [1, 5] | Final 12-week Shank-toe Length Change [1, 5] | Right Breast Muscle Change [1, 5] | other results |
| --- | --- | --- | --- | --- | --- | --- | --- | --- | --- | --- | --- | --- | --- | --- | --- | --- |
| C[C@]12CCC(=O)C[C@@H]1CC[C@@H]1[C@@H]2CC[C@]2(C)[C@@H](O)CC[C@@H]12 [5-alpha-DHT, 5-alpha-dihydrotestosterone] | 515 ± 10 g | 1191 ± 26 g | 10 ± 2 g | 16.4 ± 0.10 cm | 57 ± 2 g | 58.3% | 415 ± 15 g | 872 ± 53 g | 0.5 ± 0.2 g | 13.7 ± 0.34 cm | 36 ± 3 g | 31% | 97.9% | 19.4% | 43.8% | 12-week Body Wt. Change [1, 3]: 6.9%; Final 12-week Shank-toe Length Change [1, 3]: 3.5%; Right Breast Muscle Change [1, 3]: 10.9%; 6-week Body Wt. ([1]; 1.0-cm implant): 485 ± 12 g; 12-week Body Wt. ([1]; 1.0-cm implant): 1140 ± 39 g; Adipose Abdominal ([1]; 1.0-cm implant): 6 ± 1 g; Final 12-week Shank-toe Length ([1]; 1.0-cm implant): 16.1 ± 0.24 cm; Right Breast Muscle ([1]; 1.0-cm implant): 51 ± 3 g; 12-week Body Wt. Change [1, 4]: 10.9%; Adipose Abdominal Change [1, 4]: 75.0%; Final 12-week Shank-toe Length Change [1, 4]: 5.3%; Right Breast Muscle Change [1, 4]: 15.6%; 6-week Body Wt. Change [1, 5]: 19.1%; results when used instead of 19-nortestosterone ([2]; turkeys): unexpectedly beneficial results |
| C[C@]12CC[C@H]3[C@@H](CCC4=CC(=O)CC[C@@]43C)[C@@H]1CC[C@@H]2O [Testosterone, testosterone] | 501 ± 13 g | 1262 ± 35 g | 16 ± 2 g | 17.0 ± 0.16 cm | 61 ± 2 g | 33.3% | 505 ± 13 g | 1207 ± 25 g | 10 ± 3 g | 16.4 ± 0.16 cm | 55 ± 2 g | 5.6% | 58.3% | 3.5% | 14.1% | 6-week Body Wt. [1, 6]: 503 ± 10 g; 12-week Body Wt. [1, 6]: 1287 ± 25 g; Adipose Abdominal [1, 6]: 15 ± 3 g; Final 12-week Shank-toe Length [1, 6]: 16.9 ± 0.14 cm; Right Breast Muscle [1, 6]: 61 ± 2 g; Adipose Abdominal Change ([1]; 0.1-cm implant (so in the source), given unsigned (decrease vs cholesterol)): 37.5% |
| C[C@]12CC[C@H]3[C@@H](CCC4=CC(=O)CC[C@@H]43)[C@@H]1CC[C@@H]2O [19-Nortestosterone, 19-nortestosterone] | – | – | – | – | – | – | – | – | – | – | – | – | – | – | – | results compared with testosterone in turkeys ([2]; Table IV and Table V): unexpectedly superior advantages; relative amount of fat mass ([2]; turkey carcass): a lower relative amount of fat mass; growth rate and feed efficiency ([2]; turkeys): an increase in growth rate and feed efficiency; muscle mass ([2]; turkeys): an increase in muscle mass; results in turkeys compared with 19-nortestosterone in chickens ([2]; vs chickens (Table III)): unexpectedly superior results |
